Data: patent US20230226096A1 (Orna Therapeutics, Inc., priority 2020, published 2023)
“Also recorded” adds a separate entry of the source.

Columns and labels:
[1] = LNP particle size (Z-average) and polydispersity index by dynamic light scattering; format: physicochemical; conditions: Table 36b, LNPs with circular RNA
Description: The microfluidic chamber is cleaned with ethanol and neMYSIS syringe pumps are prepared by loading a syringe with the RNA solution and another syringe with the ethanolic lipid. Both syringes are loaded and under the control of neMESYS software. The solutions are then applied to the mixing chip at an aqueous to organic phase ratio of 2 and a total flow rate of 22 ml/min (14.67 ml/min for RNA and 7.33 ml/min for the lipid solution. Both pumps are started synchronously. The mixer solution that flowed from the microfluidic chip is collected in 4×1 ml fractions with the first fraction being discarded as waste. The remaining solution containing the circRNA-transfer vehicles is exchanged by using G-25 mini desalting columns to 10 mM Tris-HCl, 1 mM EDTA, at pH 7.5, as described above. Following buffer exchange, the materials are characterized for size, and RNA entrapment through DLS analysis and Ribogreen assays, respectively.
(§1) Lipid Nanoparticles (LNPs) were formed using a Precision Nanosystems Ignite instrument with a ‘NextGen’ mixing chamber. […] A 3:1 aqueous to ethanol mixing ratio was used. The formulated LNP then were dialyzed in 1 L of water and exchanged 2 times over 18 hours. Dialyzed LNPs were filtered using 0.2 μm filter. Prior to in vivo dosing, LNPs were diluted in PBS. LNP sizes were determined by dynamic light scattering. A cuvette with 1 mL of 20 μg/mL LNPs in PBS (pH 7.4) was measured for Z-average using the Malvern Panalytical Zetasizer Pro. The Z-average and polydispersity index were recorded.
as §1, with “formulated LNPs were” for “formulated LNP”, “then” for “then were”
as §1, with “formulated LNPs were” for “formulated LNP”, “then” for “then were”, “of 1×PBS” for “of water”

[2] = RNA encapsulation / entrapment by Ribogreen assay; format: physicochemical; conditions: Table 36b, LNPs with circular RNA
Description: A QUANT-IT™ RIBOGREEN® RNA assay (Invitrogen Corporation Carlsbad, Calif.) can be used to evaluate the encapsulation of circRNA by the nanoparticle composition. The samples are diluted to a concentration of approximately 5 μg/mL or 1 μg/mL in a TE buffer solution (10 mM Tris-HCl, 1 mM EDTA, pH 7.5). 50 μL of the diluted samples are transferred to a polystyrene 96 well plate and either 50 μL of TE buffer or 50 μL of a 2-4% Triton X-100 solution is added to the wells. The plate is incubated at a temperature of 37° C. for 15 minutes. The RIBOGREEN® reagent is diluted 1:100 or 1:200 in TE buffer, and 100 μL of this solution is added to each well. The fluorescence intensity can be measured using a fluorescence plate reader (Wallac Victor 1420 Multilabel Counter; Perkin Elmer, Waltham, Mass.) at an excitation wavelength of, for example, about 480 nm and an emission wavelength of, for example, about 520 nm. The fluorescence values of the reagent blank are subtracted from that of each of the samples and the percentage of free circRNA is determined by dividing the fluorescence intensity of the intact sample (without addition of Triton X-100) by the fluorescence value of the disrupted sample (caused by the addition of Triton X-100). C.
For transfer vehicle compositions including RNA, a QUANT-IT™ RIBOGREEN® RNA assay (Invitrogen Corporation Carlsbad, Calif.) can be used to evaluate the encapsulation of RNA by the transfer vehicle composition. […] The fluorescence intensity can be measured using a fluorescence plate reader (Wallac Victor 1420 Multilabel Counter; Perkin Elmer, Waltham, Mass.) at an excitation wavelength of, for example, about 480 nm and an emission wavelength of, for example, about 520 nm. The fluorescence values of the reagent blank are subtracted from that of each of the samples and the percentage of free RNA is determined by dividing the fluorescence intensity of the intact sample (without addition of Triton X-100) by the fluorescence value of the disrupted sample (caused by the addition of Triton X-100). […]

splenic immune cells = experiment: Cre circular RNA LNPs in Cre reporter (Ai9) mice: tdTomato+ splenic immune cells; format: in vivo; conditions: 0.5 mg/kg RNA intravenously, 48 hr, 0.5 mg/kg
Description: Circular RNAs encoding Cre recombinase (Cre) are encapsulated into lipid nanoparticles as previously described. Female, 6-8 week old B6.Cg-Gt(ROSA)26Sortm9(CAG-tdTomato)Hze/J (Ai9) mice were dosed with lipid nanoparticles at 0.5 mg/kg RNA intravenously. Fluorescent tdTomato protein was transcribed and translated in Ai9 mice upon Cre recombination, meaning circular RNAs have been delivered to and translated in tdTomato+ cells. After 48 hr, mice were euthanized and the spleens were harvested, processed into a single cell suspension, and stained with various fluorophore-conjugated antibodies for immunophenotyping via flow cytometry.
Ai9 mice (B6.Cg-Gt(ROSA)26Sortm9(CAG-tdTomato)Hze/J, female, 6-8 weeks, n=3 per group) were injected i.v. with 0.5 mg/kg Cre oRNA LNPs or PBS. Ai9 mice transcribe and translate the fluorescent reporter tdTomato upon Cre recombination; meaning cells which are tdTomato+ have successfully been transfected with Cre oRNA.

1C1C7 cells = experiment: Modified IRES, stop codon cassettes, 5′ UTR variants: GLuc luminescence in 1C1C7 cells; format: cell-based; conditions: 24 and 48 hours after transfection
Description: This example describes modifications of CK-739, AP-748, and PV-743 IRES sequences, including mutations alternative translation initiation sites.
This example describes modifications of circular RNAs by introducing stop codon or cassette variants. […] 1C1C7 cells were transfected with the circular RNAs.
This example describes modifications of circular RNAs by inserting 5′ UTR variants. […] 1C1C7 cells were transfected with the circular RNAs.

HEK293 cells = format: cell-based, human; conditions: luminescence from secreted Gluc in supernatant 24 hours after transfection of HEK293 cells; circular RNA encoding Gluc with the named IRES (UTR truncated to 675 nt)

Row | Molecule | PDI [1] | Z-Average(nm) [1] [nm] | RNA Entrapment(%) [2] [%] | also measured
1 | CCCCCCCCCCCCCCSCCOC(=O)CCN(CCCn1ccnc1C)CCC(=O)OCCSCCCCCCCCCCCCCC [22-S14, bis(2-(tetradecylthio)ethyl) 3,3′-((3-(2-methyl-1H-imidazol-1-yl)propyl)azanediyl)dipropionate] | 0.05 | 64 | 97 | 
2 | CCCCCCCCCCCCCCSCCOC(=O)CCN(CCCn1ccnc1)CCC(=O)OCCSCCCCCCCCCCCCCC [93-S14, bis(2-(tetradecylthio)ethyl) 3,3′-((3-(1H-imidazol-1-yl)propyl)azanediyl)dipropionate] | 0.04 | 74 | 95 | 
3 | CCCCCCCCC(CCCCCC)C(=O)OCCCCCCN(CCCCCCOC(=O)C(CCCCCC)CCCCCCCC)CCCn1ccnc1 (centres unmarked) [Lipid 26 from Table 10a] |  |  |  | proportion of splenic immune cells expressing tdTomato (transfection) (splenic immune cells): significantly higher myeloid and T cell transfection compared with Lipid 93-S14; also recorded: effective at delivering circular RNAs to many splenic immune cell subsets in mice
4 | CCCCCCCCC(CCCCCC)C(=O)OCCCCCCN(CCCCCCOC(=O)C(CCCCCC)CCCCCCCC)CCCn1ccnc1 (centres unmarked) [Lipid 26, Table 10a] | 0.04 | 84 | 96 | 
5 | UTR2: 5′ UTR variant: canonical Kozak sequence with "a 36-nucleotide unstructured/low GC spacer sequence" added (DNA AATAAGAGAGAAAAGAAGAGTAAGAAGAAATATAAGAGCCACC; expressed or natural sequence) |  |  |  | translation / expression (luminescence in supernatant) (1C1C7 cells): more effective
6 | UTR3: 5′ UTR variant: "a higher-GC/structured spacer with a kozak sequence" (DNA CGAACTAGTATTCTTCTGGTCCCCACAGACTCAGAGAGAACCCGCCACC; expressed or natural sequence) |  |  |  | translation / expression (luminescence in supernatant) (1C1C7 cells): did not show the same benefit
7 | EV A114 (nucleic acid, listed as Enterovirus sp.) DNA: TGTGCGCCTGTTTTGAAACCCCCTCCCCCAACTCGAAACGTAGAAGTAATGTACACTACTGATCAGTAGCAGGCGTGGCGCACCAGCCATGTCTCGATCAAGCACTTCTGTTTCCCCGGACTGAGTATCAATAGACTGCTCACGCGGTTGAAGGTGAAAACGTCCGTTACCCGGCTAACTACTTCGAGAAACCTAGTAGCACCATAGAAACTGCAGAGTGTTTCGCTCAGCACTTCCCCCGTGTAGATCAGGTCGATGAGTCACTGCAATCCCCACGGGTGACCGTGGCAGTGGCTGCGTTGGCGGCCTGCCTATGGGGCAACCCATAGGACGCTCTAAGGTGGACATGGTGTGAAGAGTCTATTGAGCTAGTTAGTAGTCCTCCGGCCCCTGAATGCGGCTAATCCTAACTGTGGAGCGCATACTCCCAAACCAGGGAGCAGTGCGTCGTAACGGGCAACTCCGCAGCGGAACCGACTACTTTGGGTGTCCGTGTTTCCTTTTATTCCTATACTGGCTGCTTATGGTGACAATTGAGAGATTGTTACCATATAGCTATTGGATTGGCCATCCAGTGTGTAATAGAGCAATCATTTACCAATTTGTTGGATTTACTCCATTAACCCACACGTCTCTCAACACACTACATTTCATCTTACTACTGAACACTAGAAA |  |  |  | Expression (HEK293 cells): 1.50E+08
8 | PSIV IGR (nucleic acid, Plautia stali intestine virus) DNA: GCTGACTATGTGATCTTATTAAAATTAGGTTAAATTTCGAGGTTAAAAATAGTTTTAATATTGCTATAGTCTTAGAGGTCTTGTATATTTATACTTACCACACAAGATGGACCGGAGCAGCCCTCCAATATCTAGTGTACCCTCG |  |  |  | Expression (HEK293 cells): 1.01E+05
